Target: T1, human PASK (Homo sapiens, UniProt Q96RG2)
T1 construct: purchased ThermoFisher Scientific PR7013A
Test: ADP-Glo kinase assay
Format: biochemical
Details: ADPGlo PASK kinase assay, 25 μM ATP, ZIPtide 25 μM
How it was run: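 Human recombinant PASK phosphorylating ZIPtide peptide with ATP, 120 min at RT; compounds in 10-point 1/5 dilution series, 1% DMSO final. ADP formed measured by ADP-Glo luminescence after ATP depletion; percent inhibition fitted to dose-response curves for averaged IC50.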

T1 sequence (Q96RG2 whole entry): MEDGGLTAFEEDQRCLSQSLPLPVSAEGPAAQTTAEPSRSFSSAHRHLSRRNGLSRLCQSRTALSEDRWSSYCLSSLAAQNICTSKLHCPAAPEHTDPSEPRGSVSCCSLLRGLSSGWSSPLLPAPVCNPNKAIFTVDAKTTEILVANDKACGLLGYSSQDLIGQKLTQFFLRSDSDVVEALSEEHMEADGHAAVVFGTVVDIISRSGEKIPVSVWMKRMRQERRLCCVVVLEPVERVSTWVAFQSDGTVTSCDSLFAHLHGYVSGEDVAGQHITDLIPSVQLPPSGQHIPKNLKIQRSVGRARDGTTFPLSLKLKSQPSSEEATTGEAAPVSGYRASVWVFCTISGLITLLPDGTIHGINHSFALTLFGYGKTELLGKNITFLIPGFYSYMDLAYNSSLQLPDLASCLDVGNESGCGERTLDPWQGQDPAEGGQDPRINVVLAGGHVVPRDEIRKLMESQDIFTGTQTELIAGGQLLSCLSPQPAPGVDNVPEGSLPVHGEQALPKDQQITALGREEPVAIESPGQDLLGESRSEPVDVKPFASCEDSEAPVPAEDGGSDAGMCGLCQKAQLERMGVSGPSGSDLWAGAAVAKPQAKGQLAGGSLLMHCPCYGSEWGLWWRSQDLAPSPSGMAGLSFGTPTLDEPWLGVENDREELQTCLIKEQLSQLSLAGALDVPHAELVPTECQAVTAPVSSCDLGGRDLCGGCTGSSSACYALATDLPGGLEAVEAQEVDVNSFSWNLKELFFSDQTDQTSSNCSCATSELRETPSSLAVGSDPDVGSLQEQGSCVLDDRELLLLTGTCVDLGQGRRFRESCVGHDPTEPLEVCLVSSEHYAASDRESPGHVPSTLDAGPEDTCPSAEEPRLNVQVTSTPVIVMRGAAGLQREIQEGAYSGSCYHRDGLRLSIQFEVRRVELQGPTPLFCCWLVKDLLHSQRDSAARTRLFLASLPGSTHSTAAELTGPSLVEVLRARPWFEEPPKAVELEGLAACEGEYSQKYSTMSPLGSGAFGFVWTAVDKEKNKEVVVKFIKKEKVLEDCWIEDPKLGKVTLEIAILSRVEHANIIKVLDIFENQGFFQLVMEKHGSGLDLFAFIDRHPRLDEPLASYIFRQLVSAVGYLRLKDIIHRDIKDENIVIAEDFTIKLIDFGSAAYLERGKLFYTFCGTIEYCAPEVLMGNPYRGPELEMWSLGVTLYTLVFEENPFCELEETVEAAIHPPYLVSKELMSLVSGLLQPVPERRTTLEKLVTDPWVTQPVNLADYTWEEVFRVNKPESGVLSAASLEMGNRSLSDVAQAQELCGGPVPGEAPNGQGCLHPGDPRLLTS

Cc1nn(C(C)C)c(C)c1-c1cnn2ccc(-c3cc(C(=O)O)co3)cc12 [Cpd 18, 5-[3-(1-isopropyl-3,5-dimethyl-pyrazol-4-yl)pyrazolo[1,5-a]pyridin-5-yl]furan-3-carboxylic acid]
IC50: 0.01 to 10 nM
